This is an account of results in patent US11926580B2, “Hydropersulfide precursors” (THE JOHNS HOPKINS UNIVERSITY, priority 2018, dated 2024).

The structures appear in SMILES notation.

The nature of data set [1]: Kinetics of RSSH generation by 1H NMR with NEM trapping. The class given is physicochemical. To be noted: pH 7.4 buffer with 20% MeOD, pH 7.4; read-out: half-life of precursor.
The test system of data set [2] is cardiomyocyte H9c2 cells. Kind of data set: Cytotoxicity / cell viability assay with Cell Counting Kit-8. To be noted: 50 μM, 24 h, CCK-8. The class given is cell-based. The method, then:
(§1) FIGS. 6a and 6b provide graphs of (a) the cell viability of cardiomyocyte H9c2 cells following incubation of the RSSH precursor 4d (50 μM) and phenylcynamide (200 μM) for 24 h; and (b) the cytoprotective effects of the RSSH precursor 4d observed following pretreatment of H9c2 cells with either 4d (50 μM) or phenylcynamide (200 μM) for 2 h, followed by hydrogen peroxide (200 μM) treatment for 2 h. Quantification of cell viability was carried out using Cell Counting Kit-8 (CCK-8). Results are expressed as the mean±SEM (n=6).
The cytotoxicity and impact on cell viability of the hydropersulfide (RSSH) precursor 4d have been examined using the cardiomyocyte H9C2 cell line and Cell Counting Kit-8 (CCK-8). A cell viability assay reveled that 4d was not cytotoxic at 50 μM ([…]).

Data set [3] concerns cardiomyocyte H9c2 cells. The experiment in a line: Cytoprotection against hydrogen peroxide-induced cytotoxicity. The class given is cell-based. To be noted: pretreatment 2 h (4d 50 μM; phenyl cyanamide 200 μM), then H2O2 200 μM 2 h, CCK-8. The method, then: as §1
Since hydropersulfides are reported to mitigate oxidative stress, the ability of RSSH precursor 4d to protect cardiomyocyte H9c2 cells from cytotoxicity induced by hydrogen peroxide (H2O2) was tested.

Data set [4] can be described thus: UPLC-MS analysis of RSSH trapping with N-ethylmaleimide. In kind it is physicochemical. To be noted: UPLC-MS. The method, then: FIGS. 2a and 2b provide graphs of (a) UPLC-MS chromatograms of RSSH generation from 4d (200 μM) in the presence of NEM (4 mM) incubated in pH 7.4 ammonium bicarbonate (100 mM) with DTPA (100 μM) at 37° C. A peak at 3.7 min corresponding to N-ethylmaleamic acid (NEMA), derived from NEM hydrolysis, was observed under these conditions (see SI); (b) MS spectrum (ESI+ mode) of the product eluting at 5.06 min corresponding to 5a with m/z 349.0885 (expected m/z 349.0886).
FIG. 5 provides a graph of UPLC-MS chromatograms of RSSH generation from compound 1 (1 mM) in the presence of NEM (5 mM) incubated in pH 7.4 ammonium bicarbonate buffer containing DTPA (100 μM) for 30 min at 37° C. The asterisk indicates the methyl ester analogue of dialkyl trisulfide 2, which was also formed due to the presence of minor amount of methyl ester analogue of 1. A peak at 3.7 min corresponding to N-ethylmaleamic acid (NEMA), derived from NEM hydrolysis, was observed under these conditions.
RSSH trapping in the presence of N-ethylmaleimide (NEM) was carried out with a Waters Acquity/Xevo-G2 UPLC-MS system equipped with an ACQUITY UPLC BEH C18 column (2.1 mm×50 mm, 1.7 μm). Typically, RSSH precursor (1 eq) was incubated with NEM (5 to 20 eq) in freshly prepared pH 7 4 ammonium bicarbonate buffer (100 mM) containing DTPA (100 μM) at 37° C. An aliquot of the reaction mixture (300 μL) was withdrawn at specified time points, quenched with 0.25% formic acid (300 μL), and filtered through a 0.22 μm filter. The samples were then loaded into vials in an autosampler maintained at 4° C. and analyzed using UPLC-MS as follows: Mobile phase: 0-1 min 90% water+0% ACN+10% formic acid (0.1%); 1-7.5 min gradient up to 10% water+80% ACN+10% formic acid (0.1%); 7.5-8.4 min 10% water+80% ACN+10% formic acid (0.1%); 8.4-8.5 min gradient up to 90% water+0% ACN+10% formic acid (0.1%), 8.5-10 min 90% water+0% ACN+10% formic acid (0.1%). Flow rate=0.3 mL min^−1. The mass signals for products of RSSH trapping with NEM were obtained via deconvolution using MassLynx 4.1 software.
To a solution of NEM (5 mM) in pH 7 4 ammonium bicarbonate (100 mM) with DTPA (100 μM) in a 20-mL scintillation vial, hydropersulfide precursor 1 (1 mM, total reaction volume 3 mL) was added. The resulting mixture was incubated at 37° C. for 30 min. An aliquot of 300 μL reaction mixture was withdrawn, quenched with 300 μL of formic acid (0.25%) and analyzed using UPLC-MS.

Data set [5] can be described thus: Decomposition of precursor at pH 6 and pH 8.5. The class given is physicochemical. The source says:
Based on the clean formation of hydropersulfide and aryl cyanamide during decomposition of 4d-h, the general mechanism shown in Scheme 5 is proposed. Neutralization of S-alkyl-thioisothiourea 7 (or its resonance partner 7a) occurs at pH 7.4 to produce a neutral species 8 and/or 8a, which can further undergo an elimination reaction to produce RSSH and aryl cyanamide. The elimination reaction can be initiated by either donation of the imine-nitrogen lone pair of 8 to form aryl cyanamide and RSSH (Scheme 5, eq. 2) or deprotonation of the arylamino-nitrogen proton to form RSSH and an aryl carbodiimide, which can further undergo tautomerization to afford the aryl cyanamide (Scheme 5, eq. 3). Alternately, an elimination reaction can be initiated by donation of the nitrogen lone pair of intermediate 8a to produce RSSH and aryl carbodiimide (Scheme 5, eq. 1). The decomposition of precursor 4d was examined at pH 6 and pH 8.5. […] In addition, the thermodynamic stability of the aryl cyanamide produced could contribute to the observed rate of RSSH release.

The term half-life denotes the time in which the quantity being followed falls by half. Usually melting point stands for the temperature, or range, at which the solid turns liquid. `CC(=O)NC(C(=O)O)C(C)(C)SSC(=N)Nc1ccccc1.Cl` (centres unmarked) [Precursor 4d, ((1-acetamido-1-carboxy-2-methylpropan-2-yl)disulfaneyl)(phenylamino)methaniminium chloride] had a melting point of 155 to 157 °C. In addition, the half-life in data set [1] worked out at 4.3 min. Moreover, the “cytotoxicity (cell viability)” value with cardiomyocyte H9c2 cells [2] is “not cytotoxic”. Besides, in the data set on cardiomyocyte H9c2 cells [3], the “cytoprotection from H2O2-induced cytotoxicity” value is “significant cytoprotection”. Also, in data set [4] (NEM trap, pH 7.4 buffer, 37° C.), the “RSSH generation (RSS-NEM adduct formation)” value is given as “clean conversion of 4d to the RSS-NEM adduct 5a”. For the same molecule, the “phenyl cyanamide yield from precursor decomposition” value in data set [4] (NEM, pH 7.4, 37° C.) was 94%. Further, the decomposition rate result in data set [5] (pH 6 (lower pH)) is “substantially slowed”. In data set [5] (pH 8.5 (higher pH)), the decomposition rate result is reported as “increased”.
